In patent publication US10875844B2, “Salicylate inhibitors of MELK and methods of use” (priority 2015, dated 2020):

Biological target: T1, MELK (Homo sapiens, UniProt Q14680)
T1 construct: purchased Life Technologies
Test: Z′-LYTE biochemical assay (Life Technologies), MELK inhibition
Protocol: The invention also provides methods for inhibiting MELK, comprising contacting MELK with a compound of the invention in an amount effective to inhibit MELK. In certain embodiments, the method is conducted in vitro. In certain embodiments, the method is conducted in vivo. Inhibition of MELK can be determined by the Z′-LYTE® biochemical assay from Life Technologies (Life Technologies Z′-LYTE® Screening Protocol and Assay Conditions, June 2012, incorporated herein by reference).
The following compounds were made according to the general scheme shown in Example 1. IC50 against MELK was determined by Z′-LYTE® biochemical assay at 25 uM ATP concentration, and are measured in nM.

T1 sequence (Q14680 whole entry): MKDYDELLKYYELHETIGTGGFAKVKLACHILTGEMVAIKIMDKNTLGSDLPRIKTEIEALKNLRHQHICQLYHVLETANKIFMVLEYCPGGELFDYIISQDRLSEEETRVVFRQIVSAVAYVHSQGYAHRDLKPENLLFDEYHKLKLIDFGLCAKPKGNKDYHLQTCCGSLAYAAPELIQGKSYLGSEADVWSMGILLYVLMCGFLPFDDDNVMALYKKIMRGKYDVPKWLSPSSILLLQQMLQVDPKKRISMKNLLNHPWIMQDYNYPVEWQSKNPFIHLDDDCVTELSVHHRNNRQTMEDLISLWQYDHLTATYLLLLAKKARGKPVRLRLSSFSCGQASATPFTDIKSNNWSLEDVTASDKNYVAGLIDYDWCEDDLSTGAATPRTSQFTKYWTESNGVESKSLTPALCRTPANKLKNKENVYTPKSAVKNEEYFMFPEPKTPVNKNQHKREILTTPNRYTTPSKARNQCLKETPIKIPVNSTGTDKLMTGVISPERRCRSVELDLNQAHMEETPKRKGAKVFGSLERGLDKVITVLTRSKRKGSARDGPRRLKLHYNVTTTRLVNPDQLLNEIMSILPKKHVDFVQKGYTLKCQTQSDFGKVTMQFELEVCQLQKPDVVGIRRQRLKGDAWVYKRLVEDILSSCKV

Question: For `O=C(Nc1ccc2c(c1)CCNCC2)c1ccc(-c2cn[nH]c2)cc1OCc1cccnc1`, which IC50 is on record?
Answer: 0.0162 µM

Question: For `O=C(Nc1ccc2c(c1)CCNCC2)c1ccc(-c2cn[nH]c2)cc1OC1Cc2ccccc2C1`, which IC50 is on record?
Answer: 0.00105 µM

Question: `O=C(Nc1ccccc1)c1ccc(-c2cn[nH]c2)cc1OCc1ccccc1` was tested. Which IC50 did it give?
Answer: 1.16 µM

Question: For `CC(=O)N1CCc2ccc(NC(=O)c3ccc(-c4cn[nH]c4)cc3OCc3ccccc3)cc2CC1` [Compound 02-111, N-(3-acetyl-2,3,4,5-tetrahydro-1H-benzo[d]azepin-7-yl)-2-(benzyloxy)-4-(1H-pyrazol-4-yl)benzamide], which IC50 is on record?
Answer: 0.0606 µM

Question: For `O=C(Nc1ccc2c(c1)CCNCC2)c1ccc(-c2cn[nH]c2)cc1OCCN1CCOCC1`, which IC50 is on record?
Answer: 0.0853 µM

Question: `O=C(Nc1ccc2c(c1)CCNCC2)c1ccc(-c2cc(Cl)c(O)c(Cl)c2)cc1OCc1ccccc1` [Compound 02-104, 3-(benzyloxy)-3′,5′-dichloro-4′-hydroxy-N-(2,3,4,5-tetrahydro-1H-benzo[d]azepin-7-yl)-[1,1′-biphenyl]-4-carboxamide] was tested. Which IC50 did it give?
Answer: 0.00192 µM

Question: For `O=C(Nc1ccc2c(c1)CCNCC2)c1ccc(-c2cn[nH]c2)cc1OC1CCCCC1`, which IC50 is on record?
Answer: 0.00299 µM

Question: `O=C(Nc1ccc2c(c1)CCNCC2)c1ccc(-c2cn[nH]c2)cc1O` was tested. Which IC50 did it give?
Answer: 0.0688 µM

Question: With `O=C(Nc1ccc2c(c1)CCNCC2)c1ccc(-c2cn[nH]c2)cc1OCC1CCCCC1` as the molecule, how does the IC50 read?
Answer: 0.00548 µM

Question: `O=C(Nc1ccc2c(c1)CCNCC2)c1ccc(-c2cn[nH]c2)cc1OCCN1CCCC1` was tested. Which IC50 did it give?
Answer: 0.0751 µM

Question: Which IC50 does the source give for `O=C(Nc1cccc2c1CCNCC2)c1ccc(-c2cn[nH]c2)cc1OCc1ccccc1` [Compound 02-103] here?
Answer: 0.134 µM

Question: With `O=C(Nc1ccc2c(c1)CCNCC2)c1ccc(-c2cn[nH]c2)cc1OC(CN1CCCC1)c1ccccc1` (centres unmarked) as the molecule, how does the IC50 read?
Answer: 0.213 µM

Question: Which IC50 does the source give for `O=C(Nc1ccc2c(c1)CCNCC2)c1ccc(-c2cn[nH]c2)cc1OCCN1CCCC1=O` here?
Answer: 0.0806 µM

Question: For `O=C(Nc1ccc2c(c1)CCNCC2)c1ccc(-c2cn[nH]c2)cc1OCc1ccccc1` [Compound 02-102, 2-(benzyloxy)-4-(1H-pyrazol-4-yl)-N-(2,3,4,5-tetrahydro-1H-benzo[d]azepin-7-yl)benzamide], which IC50 is on record?
Answer: 0.00217 µM
